Here are results for 6 compounds from patent US9120795B2, “Crystalline form of a β-lactamase inhibitor” (Cubist Pharmaceuticals, Inc., priority 2013, dated 2015).

The structures appear in SMILES notation.

This data set can be described thus: Solid form stability at ambient conditions, XRPD. The note with it: sulfate; for transformation of the form at ambient conditions: storage at ambient conditions. It is filed as physicochemical. As for the experimental part:
X-Ray Powder Diffraction patterns were collected on a Bruker D8 diffractometer using Cu Kα radiation (40 kV, 40 mA), 0-20 goniometer, and divergence of V4 and receiving slits, a Ge monochromator and a Lynxeye detector. The instrument is performance checked using a certified Corundum standard (NIST 1976). The software used for data collection was Diffrac Plus XRD Commander v2.6.1 and the data were analysed and presented using Diffrac Plus EVA v13.0.0.2 or v15.0.0.0. Samples were run under ambient conditions as flat plate specimens using powder as received. The sample was gently packed into a cavity cut into polished, zero-background (510) silicon wafer. The sample was rotated in its own plane during analysis. The details of the data collection are: angular range: 2 to 42 °2θ; step size: 0.05 °2θ; collection time: 0.5 s/step. Amorphous material (˜60 mg) was generated as in Procedure 1. The amorphous material was suspended in different solvent systems (3 mL) at 50° C. A sample was withdrawn after 3 h and 24 h. The final product was filtered after 48 h and analysed by XRPD. The solids isolated were re-analysed again by XRPD after few days at ambient conditions (˜25° C. and ˜40% RH).

With `O=C1N2C[C@@H](CC[C@H]2c2nnco2)N1OS(=O)(=O)[O-].[Na+]` [Hydrate 2, sodium (2S,5R)-2-(1,3,4-oxadiazol-2-yl)-7-oxo-1,6-diazabicyclo[3.2.1]octan-6-yl sulfate], the “stability of the form (Summary of Forms, Description)” value (shortened to “stability of the form”) is listed as “Metastable, hexa-hydrate”.

`O=C1N2C[C@@H](CC[C@H]2c2nnco2)N1OS(=O)(=O)[O-].[Na+]` [Hydrate 3, sodium (2S,5R)-2-(1,3,4-oxadiazol-2-yl)-7-oxo-1,6-diazabicyclo[3.2.1]octan-6-yl sulfate]: the “transformation of the form at ambient conditions” value (“transformation of the form” below) was “metastable and transform to Hydrate 5 or Hydrate 1”; the “stability of the form” value is reported as “Metastable, suspected mono-hydrate”. As to `O=C1N2C[C@@H](CC[C@H]2c2nnco2)N1OS(=O)(=O)[O-].[Na+]` [Hydrate 4, sodium (2S,5R)-2-(1,3,4-oxadiazol-2-yl)-7-oxo-1,6-diazabicyclo[3.2.1]octan-6-yl sulfate], the “transformation of the form” value was “metastable and transforms to Hydrate 1”; the “stability of the form” value is “Metastable, suspected hemi-hydrate”. Take `O=C1N2C[C@@H](CC[C@H]2c2nnco2)N1OS(=O)(=O)[O-].[Na+]` [Hydrate 5, sodium (2S,5R)-2-(1,3,4-oxadiazol-2-yl)-7-oxo-1,6-diazabicyclo[3.2.1]octan-6-yl sulfate]: the “stability of the form” value is “Metastable, di-hydrate”.

As for `O=C1N2C[C@@H](CC[C@H]2c2nnco2)N1OS(=O)(=O)[O-].[Na+]` [Hydrate 6, sodium (2S,5R)-2-(1,3,4-oxadiazol-2-yl)-7-oxo-1,6-diazabicyclo[3.2.1]octan-6-yl sulfate], the “transformation of the form” value was “metastable and transform to Hydrate 5 or Hydrate 1”; the “stability of the form” value was “Metastable, suspected mono-hydrate,”.

Consider `O=C1N2C[C@@H](CC[C@H]2c2nnco2)N1OS(=O)(=O)[O-].[Na+]` [Hydrate 7, sodium (2S,5R)-2-(1,3,4-oxadiazol-2-yl)-7-oxo-1,6-diazabicyclo[3.2.1]octan-6-yl sulfate], for which the “stability of the form” value is reported as “Metastable, only isolated as a mixture”.
